System: Plasmodium berghei
Assay: Luciferase/luciferin-expressing antifolate-resistant parasites were used to infect a culture of HepG2 cells that were pre-incubated with compounds. Infected hepatocytes emit light due to the luciferase reaction. Assay results are presented as the percent inhibition of light emission compared to control. […]
Type: functional
Conditions: sporozoite; for IC90: read-out: LUCIFERASE INFECTION ASSAY - IC90
[1] = read-out: LUCIFERASE INFECTION ASSAY - IC50

Question: `O=S(=O)(c1ccccc1)N1[C@@H]2CC[C@@H](C2)[C@H]1c1nc2c(OCCC3CCCCC3)cccc2[nH]1` was tested. Which IC50 (FFLUC_HILL_SLOPE 8.97, FFLUC_R_SQUARED 0.445, PBLUC_HILL_SLOPE 2.11, PBLUC_R_SQUARED 0.35, read-out: LUCIFERASE INFECTION ASSAY - IC50) did it give?
Answer: 6.12 µM

Question: And the IC90?
Answer: > 10 µM

Question: `C=CCN(c1ccccc1)S(=O)(=O)c1ccc(Cl)c(C(=O)Nc2ccc(N(c3ccccc3)C(C)C)cc2)c1` was tested. Which IC50 (FFLUC_HILL_SLOPE 2.09, FFLUC_R_SQUARED 0.761, HEPG2TOX_HILL_SLOPE 2.29, HEPG2TOX_R_SQUARED 0.839, PBLUC_HILL_SLOPE 16.1, PBLUC_R_SQUARED 0.248, read-out: LUCIFERASE INFECTION ASSAY - IC50) did it give?
Answer: 7.29 µM

Question: And the IC90?
Answer: 8.36 µM

Question: With `O=C(NCc1sccc1Cl)Nc1cccc(Cl)c1` as the compound, how does the IC50 (PBLUC_HILL_SLOPE 5.24, PBLUC_R_SQUARED 0.165, read-out: LUCIFERASE INFECTION ASSAY - IC50) read?
Answer: 7.24 µM

Question: And the IC90?
Answer: > 11 µM

Question: Which IC50 [1] does the source give for `NNC(=O)COc1ccccc1CSc1ccc(Cl)cc1` here?
Answer: > 10.2 µM

Question: And the IC90?
Answer: > 10.2 µM

Question: For `C/C(=N\Nc1nc2ccccc2o1)c1ccc2ccccc2c1O`, which IC50 (HEPG2TOX_HILL_SLOPE 7.42, HEPG2TOX_R_SQUARED 0.127, PBLUC_HILL_SLOPE 13.1, PBLUC_R_SQUARED 0.536, read-out: LUCIFERASE INFECTION ASSAY - IC50) is on record?
Answer: 8.85 µM

Question: And the IC90?
Answer: > 10 µM

Question: `O=S(=O)(c1ccc(Br)s1)N(c1ccc2c(c1)OC1(CCCC1)O2)S(=O)(=O)c1ccc(Br)s1` was tested. Which IC50 [1] did it give?
Answer: 4.98 µM

Question: What about the IC90 of the same compound?
Answer: > 10 µM

Question: How did the IC50 [1] turn out when `COc1ccc(-c2ccc(C=C(C#N)C#N)s2)cc1` was run?
Answer: 0.403 µM

Question: What about the IC90 of the same compound?
Answer: 0.914 µM

Question: Which results are given for `Cc1cc(C(=O)COC(=O)c2ccc(Cl)cc2N)c(C)n1CC1CCCO1` (stereo not given)?
Answer: IC50 [1]: > 10 µM; IC90: > 10 µM

Question: How did the IC50 [1] turn out when `CC1CCN(Cc2c(-c3ccccc3)n(C)c3ccccc23)CC1` was run?
Answer: > 10 µM

Question: And the IC90?
Answer: > 10 µM

Question: `Cc1nc(C(=N)NOC(=O)c2c(-c3c(Cl)cccc3Cl)noc2C)cs1` was tested. Which IC50 (HEPG2TOX_HILL_SLOPE 7.11, HEPG2TOX_R_SQUARED 0.0768, PBLUC_HILL_SLOPE 8.1, PBLUC_R_SQUARED 0.284, read-out: LUCIFERASE INFECTION ASSAY - IC50) did it give?
Answer: 0.945 µM

Question: And the IC90?
Answer: 1.24 µM

From ChEMBL document CHEMBL4483862, “Open-source discovery of chemical leads for next-generation chemoprotective antimalarials” (2018)
